The text below walks through data of patent US6083932A, “Pharmaceutical compositions derived from ginseng and methods of treatment using same” (CV Technologies Inc., priority 1998, dated 2000).

Molecules are shown by their SMILES. “And” between values parts separate entries of the source, which are not always exact repeats. Equal values may be shown once. “Also recorded” adds a separate entry of the source.

The subject of experiment [1] is choline uptake into synaptosomes, hippocampus. The experiment in a line: choline uptake into synaptosomes from rat hippocampus. Type of experiment: biochemical. As to conditions: 1 × 10^-6M, n = 10, 1 µM. The source says:
We also studied the effects of HT1001 on choline uptake in synaptosomes.
We have examined choline uptake in synaptosome preparations from whole brain and hippocampus in the presence of Rb1, HT1001 and HC3.

The test system of another experiment is T type calcium channel. The experiment in a line: T type calcium channel currents in N1E115 neuroblastoma cells (whole-cell patch-clamp). The conditions noted are these: same concentration (100 μM); N1E-115 cells. Type of experiment: cell-based, mouse. Here is the method:
(§1) A study of the effects of HT1001 and some pure ginsenosides on calcium channel activity in cultured neuroblastoma cells was conducted.
(§2) Neuroblastoma Cell Culture. Mouse neuroblastoma cells (N1E115) were cultured in Dulbecco's modified Eagle's medium (GIBCO) containing 10% fetal bovine serum at 37° C. in a humidified atmosphere of 5% CO2 in air. The medium was changed every 3-4 days. After mechanical agitation, 3×10^4 cells were replanted in 35 mm tissue culture dishes containing 4 ml of bath solution. After cell attachment, the dish was mounted on the stage of an inverted phase-contrast microscope (Nikon) for Ca^2+ channel current recording. These cells expressed predominately T channel currents. In experiments where L channels were specifically sought, the cells were grown and maintained at confluence for 3-4 weeks under the same culture conditions with the addition of 2% (vol/vol) dimethyl sulfoxide. Three to five days before use, the cells were replanted with the same medium. These cells expressed predominately L channel currents. […]
(§3) Ca^2+ Channel Current Recording in Neuroblastoma Cells. […] Since the peak currents measured with 20 mM Ba^2+ as the charge carrier were usually small (about 200 pA) the series resistance compensation was not usually employed. […] For every single-cell recording, stable readings were first obtained for 5 min; the drug was then added to the bath solution. […]
On the technique in general: Patch clamp records ionic current or voltage across a cell membrane.

Another experiment deals with L type calcium channel. The experiment can be described thus: L type calcium channel currents in N1E115 neuroblastoma cells (whole-cell patch-clamp). Type of experiment: cell-based, mouse. As to conditions: same concentration (100 μM); N1E-115 cells. The method, then:
as §1, §2, §3

The next experiment concerns rats. As to conditions: rat, in vivo; cited from earlier work.
Experiment [2] concerns choline uptake into synaptosomes, whole brain. The conditions noted are these: Benishin 1992 / previously demonstrated; cited from earlier work.
For experiment [3], the system named is ACh in the cortical and hippocampal regions of the brain. As to conditions: U.S. Pat. No. 5,137,878; cited from earlier work.
A further experiment deals with 5-hydroxytryptamine. The conditions noted are these: rat and mouse brain; Zhang et al 1990; cited from earlier work.

Turning to `CC(C)=CCC[C@](C)(O[C@@H]1O[C@H](CO[C@@H]2O[C@H](CO)[C@@H](O)[C@H](O)[C@H]2O)[C@@H](O)[C@H](O)[C@H]1O)[C@H]1CC[C@]2(C)[C@@H]1[C@H](O)C[C@@H]1[C@@]3(C)CC[C@H](O[C@@H]4O[C@H](CO)[C@@H](O)[C@H](O)[C@H]4O[C@@H]4O[C@H](CO)[C@@H](O)[C@H](O)[C@H]4O)C(C)(C)[C@@H]3CC[C@]12C` [Rb1, ginsenoside Rb1], the “choline uptake, Rb1” value in experiment [1] was 126 % control and 111 % control and 125 % control. In addition, the “effect on T type calcium channel currents” value in the experiment on T type calcium channel was “significant inhibitory effect; also recorded: inhibitory effects”. Also, the “effect on L type calcium channel currents” value in the experiment with L type calcium channel is “significant inhibitory effect; also recorded: inhibitory effects”. Also, the “learning and memory (literature)” value in the experiment on rats is “enhance learning and memory”. Further, the “choline uptake (literature)” value in experiment [2] is listed as “increase choline uptake”. Further, in experiment [3], the “availability of ACh” value is recorded as “enhance the availability of ACh” and the “symptoms of Alzheimer-type senile dementia” value is “alleviate the symptoms of Alzheimer-type senile dementia”. Also, the “levels of 5-hydroxytryptamine and 5-hydroxyindoleacetic acid” value in the experiment on 5-hydroxytryptamine is “decrease the levels”.

With `CC(C)=CCC[C@](C)(O[C@@H]1O[C@H](CO)[C@@H](O)[C@H](O)[C@H]1O)[C@H]1CC[C@]2(C)[C@@H]1[C@H](O)C[C@@H]1[C@@]3(C)CC[C@H](O)C(C)(C)[C@@H]3[C@@H](O[C@@H]3O[C@H](CO)[C@@H](O)[C@H](O)[C@H]3O)C[C@]12C` [Rg1, ginsenoside Rg1], the “effect on T type calcium channel currents” value in the experiment with T type calcium channel is on record as “significant inhibitory effect; also recorded: inhibitory effects”. In the experiment with L type calcium channel, the “effect on L type calcium channel currents” value was “significant inhibitory effect; also recorded: inhibitory effects”. In experiment [3], the “availability of ACh” value is on record as “enhance the availability of ACh” and the “symptoms of Alzheimer-type senile dementia” value is “alleviate the symptoms of Alzheimer-type senile dementia”. In the experiment with 5-hydroxytryptamine, the “levels of 5-hydroxytryptamine and 5-hydroxyindoleacetic acid” value was “decrease the levels”.
